Where two headings read alike, the source gives them in different places.
Legend:
Assay in all cases: 96-well microtiter plate assay, fungal growth inhibition
[1] = test system: B. cinerea; format: cell-based, Botrytis cinerea; conditions: for Percent inhibition−Percent Stimulation±SEM: B. cinerea; for inhibition at 0.3 µM / inhibition at 3 µM / inhibition at 30 µM: Botrytis cinerea, read-out: Percent inhibition−Percent Stimulation±SEM
Excerpt: (§1) Pathogen production. Isolates of Colletotrichum acutatum Simmonds, Colletotrichum fragariae Brooks, and Colletotrichum gloeosporioides (Penz.) Penz. & Sacc. in Penz. were obtained from B. J. Smith, USDA, ARS, Small Fruit Research Station, Poplarville, Miss. Colletotrichum fragariae (isolate CF63), C. acutatum (isolate CAGoff), and C. gloeosporioides (isolate CG162) were used for all pathogen and bioautography studies. Isolate CF63 is one of the most virulent isolates at infecting strawberry plants and inducing both crown and fruit rot (Smith and Black, 1990). CF63, CAGoff, and CG162 were used as standard test isolates because of our extensive knowledge of these isolates and their known fungicide sensitivity profiles in both bioautography and microtiter formats. The three Colletotrichum species were isolated from strawberry (Fragaria x ananassa Duchesne). Botrytis cinerea Pers.: Fr, was isolated from commercial grape (Vitis vinifera L.) and Fusarium oxysporum Schlechtend: Fr from orchid (Cynoches sp.). Phomopsis viticola (Sacc.) and P. obscurans (Ellis & Everh.) Sutton were from Mike A. Ellis, Ohio State University, Wooster, Ohio. Fungi were grown on potato-dextrose agar (PDA, Difco, Detroit, Mich.) in 9 cm petri dishes and incubated in a growth chamber at 24±2° C. and under cool-white fluorescent lights ([…]·m^−2·sec^−1 light) with 12 hour photoperiod.
(§2) Inoculum preparation. Conidia were harvested from 7-10 day-old cultures by flooding plates with 5 mL of sterile distilled water and dislodging conidia by softly brushing the colonies with an L-shaped glass rod. Conidial suspensions were filtered through sterile miracloth (Calbiochem-Novabiochem Corp., La Jolla, Calif.) to remove mycelia. Conidia concentrations were determined photometrically, from a standard curve based on the percent of transmittance (% T) at 625 nm and suspensions were then adjusted with sterile distilled water to a concentration of 1.0×10^6 conidia/mL.
(§3) Microtiter assay. A standardized 96-well microtiter plate assay developed for discovery of natural product fungicidal agents was used to evaluate naturally occurring antifungal agents from Macaranga monanara. A 96-well microtiter assay was used to determine sensitivity of B. cinerea, C. acutatum, C. fragariae, C. gloeosporioides, F. oxysporum, Phomopsis viticola, and P. obscurans to the various antifungal agents in comparison with known fungicidal standards. Vinclozolin, captan, and thiabendazole, which represent three different modes of action, were used as standards in this experiment. Each fungus was challenged in a dose-response format using test compounds where the final treatment concentrations were 0.3, 3.0 and 30.0 μM. Microtiter plates (Nunc MicroWell, untreated; Roskilde, Denmark) were covered with a plastic lid and incubated in a growth chamber as described previously for fungal growth. Growth was then evaluated by measuring absorbance of each well at 620 nm using a microplate photometer (Packard Spectra Count, Packard Instrument Co., Downers Grove, Ill.). Microtiter plates (Nunc MicroWell, untreated; Roskilde, Denmark) were covered with a plastic lid and incubated in a growth chamber at 24±1° C. and 12 hour photoperiod under 60±5 μmol light. Growth was then evaluated by measuring absorbance of each well at 620 nm using a microplate photometer (Packard Spectra Count, Packard Instrument Co., Downers Grove, Ill.).
(§4) Microbioassy Experimental Design. Chemical sensitivity each of B. cinerea, C. acutatum, C. fragariae, C. gloeosporiodes, F. oxysporum, Phomopsis viticola, and P. obscurans was evaluated using 96-well plate microbioassay format. Each chemical was evaluated in duplicate at each dose (0.3, 3.0 and 30.0 μM). […]

[2] = test system: C. gloeosporioides; format: cell-based, Colletotrichum gloeosporioides; conditions: for Percent inhibition−Percent Stimulation±SEM: C. gloeosporioides; for inhibition at 0.3 µM / inhibition at 3 µM / inhibition at 30 µM: Colletotrichum gloeosporioides, read-out: Percent inhibition−Percent Stimulation±SEM
Excerpt: as §1, §2, §3, §4

[3] = test system: F. oxysporum; format: cell-based, Fusarium oxysporum; conditions: for Percent inhibition−Percent Stimulation±SEM: F. oxysporum; for inhibition at 0.3 µM / inhibition at 3 µM / inhibition at 30 µM: Fusarium oxysporum, read-out: Percent inhibition−Percent Stimulation±SEM
Excerpt: as §1, §2, §3, §4

[4] = test system: C. acutatum; format: cell-based, Colletotrichum acutatum; conditions: for Percent inhibition−Percent Stimulation±SEM: C. acutatum; for inhibition at 0.3 µM / inhibition at 3 µM / inhibition at 30 µM: Colletotrichum acutatum, read-out: Percent inhibition−Percent Stimulation±SEM
Excerpt: as §1, §2, §3, §4

[5] = test system: C. fragariae; format: cell-based, Colletotrichum fragariae; conditions: for Percent inhibition−Percent Stimulation±SEM: C. fragariae; for inhibition at 0.3 µM / inhibition at 3 µM / inhibition at 30 µM: Colletotrichum fragariae, read-out: Percent inhibition−Percent Stimulation±SEM
Excerpt: as §1, §2, §3, §4

In the case of `O=C1c2ccccc2-c2nccc3c2c1nc1ccccc13` [Benzo[4,5]sampangine, benzo[4,5]sampangine], the “Percent inhibition−Percent Stimulation±SEM” value ([1]; 0.3 μM, 48 hrs) is reported as −70.2 ± 5.8%, the “Percent inhibition−Percent Stimulation±SEM” value ([1]; 0.3 μM, 72 hrs) is reported as −55.2 ± 8.1% and the “Percent inhibition−Percent Stimulation±SEM” value ([1]; 3.0 μM, 48 hrs) is reported as −78.0 ± 3.6%. For the same compound, the “Percent inhibition−Percent Stimulation±SEM” value ([1]; 3.0 μM, 72 hrs) was −46.7 ± 10.2%, the “Percent inhibition−Percent Stimulation±SEM” value ([1]; 30 μM, 48 hrs) was −99.2 ± 19.4% and the “Percent inhibition−Percent Stimulation±SEM” value ([1]; 30 μM, 72 hrs) was −22.8 ± 14.7%. The “Percent inhibition−Percent Stimulation±SEM” value ([2]; 0.3 μM, 48 hrs) was −100.0 ± 1.0%, the “Percent inhibition−Percent Stimulation±SEM” value ([2]; 0.3 μM, 72 hrs) was −100.0 ± 0.3% and the “Percent inhibition−Percent Stimulation±SEM” value ([2]; 3.0 μM, 48 hrs) was −98.6 ± 1.1%. The “Percent inhibition−Percent Stimulation±SEM” value ([2]; 3.0 μM, 72 hrs) was −99.7 ± 0.4%, the “Percent inhibition−Percent Stimulation±SEM” value ([2]; 30 μM, 48 hrs) was −100.0 ± 1.8% and the “Percent inhibition−Percent Stimulation±SEM” value ([2]; 30 μM, 72 hrs) was −100.0 ± 0.9%. The “Percent inhibition−Percent Stimulation±SEM” value ([3]; 0.3 μM, 48 hrs) was −48.2 ± 4.4%, the “Percent inhibition−Percent Stimulation±SEM” value ([3]; 0.3 μM, 72 hrs) was −17.1 ± 2.0% and the “Percent inhibition−Percent Stimulation±SEM” value ([3]; 3.0 μM, 48 hrs) was −77.7 ± 5.7%. For the same compound, the “Percent inhibition−Percent Stimulation±SEM” value ([3]; 3.0 μM, 72 hrs) was −27.2 ± 6.2%, the “Percent inhibition−Percent Stimulation±SEM” value ([3]; 30 μM, 48 hrs) was −57.9 ± 3.2% and the “Percent inhibition−Percent Stimulation±SEM” value ([3]; 30 μM, 72 hrs) was −27.2 ± 1.9%. For the same compound, the “Percent inhibition−Percent Stimulation±SEM” value ([4]; 0.3 μM, 48 hrs) was −30.5 ± 10.2%, the “Percent inhibition−Percent Stimulation±SEM” value ([4]; 0.3 μM, 72 hrs) was −25.9 ± 8.0% and the “Percent inhibition−Percent Stimulation±SEM” value ([4]; 3.0 μM, 48 hrs) was −74.2 ± 6.3%. For the same compound, the “Percent inhibition−Percent Stimulation±SEM” value ([4]; 3.0 μM, 72 hrs) was −46.2 ± 5.2%, the “Percent inhibition−Percent Stimulation±SEM” value ([4]; 30 μM, 48 hrs) was −57.0 ± 10.0% and the “Percent inhibition−Percent Stimulation±SEM” value ([4]; 30 μM, 72 hrs) was −38.9 ± 5.2%. For the same compound, the “Percent inhibition−Percent Stimulation±SEM” value ([5]; 0.3 μM, 48 hrs) was −38.4 ± 6.1%, the “Percent inhibition−Percent Stimulation±SEM” value ([5]; 0.3 μM, 72 hrs) was −19.8 ± 7.7% and the “Percent inhibition−Percent Stimulation±SEM” value ([5]; 3.0 μM, 48 hrs) was −72.4 ± 8.5%. The “Percent inhibition−Percent Stimulation±SEM” value ([5]; 3.0 μM, 72 hrs) was −54.7 ± 11.2%, the “Percent inhibition−Percent Stimulation±SEM” value ([5]; 30 μM, 48 hrs) was −52.9 ± 6.5% and the “Percent inhibition−Percent Stimulation±SEM” value ([5]; 30 μM, 72 hrs) was −29.4 ± 6.8%.
`O=C1C2CC=CCC2C(=O)N1SC(Cl)(Cl)Cl` (stereo not drawn) [Captan] gave an inhibition at 0.3 µM ([1]; 48 h) of -55.9 ± 24.7%, an inhibition at 3 µM ([1]; 48 h) of 38.4 ± 23.5% and an inhibition at 30 µM ([1]; 48 h) of 58 ± 23.2%. For the same compound, the inhibition at 0.3 µM ([1]; 72 h) was 40.7 ± 16.3%, the inhibition at 3 µM ([1]; 72 h) was 54.6 ± 22.9% and the inhibition at 30 µM ([1]; 72 h) was 54 ± 17.9%. The inhibition at 0.3 µM ([2]; 48 h) was -4.4 ± 4.4%, the inhibition at 3 µM ([2]; 48 h) was 96.3 ± 2.1% and the inhibition at 30 µM ([2]; 48 h) was 99.7 ± 0.6%. For the same compound, the inhibition at 0.3 µM ([2]; 72 h) was -15.3 ± 2.1%, the inhibition at 3 µM ([2]; 72 h) was 97.9 ± 0.7% and the inhibition at 30 µM ([2]; 72 h) was 100 ± 0.3%. The inhibition at 0.3 µM ([3]; 48 h) was 2.8 ± 4.7%, the inhibition at 3 µM ([3]; 48 h) was 77.2 ± 7.2% and the inhibition at 30 µM ([3]; 48 h) was 100 ± 0.4%. It also gave an inhibition at 0.3 µM ([3]; 72 h) of -4.7 ± 2.1%, an inhibition at 3 µM ([3]; 72 h) of 24.1 ± 6.5% and an inhibition at 30 µM ([3]; 72 h) of 99.8 ± 0.2%. It also gave an inhibition at 0.3 µM ([4]; 48 h) of -2.7 ± 2.4%, an inhibition at 3 µM ([4]; 48 h) of 98.8 ± 0.4% and an inhibition at 30 µM ([4]; 48 h) of 99.5 ± 0.3%. For the same compound, the inhibition at 0.3 µM ([4]; 72 h) was -9.5 ± 1.5%, the inhibition at 3 µM ([4]; 72 h) was 94.8 ± 0.2% and the inhibition at 30 µM ([4]; 72 h) was 99.6 ± 0.2%. The inhibition at 0.3 µM ([5]; 48 h) was -20.5 ± 9.5%, the inhibition at 3 µM ([5]; 48 h) was 98.1 ± 0.6% and the inhibition at 30 µM ([5]; 48 h) was 98.8 ± 0.8%. For the same compound, the inhibition at 0.3 µM ([5]; 72 h) was -14.9 ± 2.2%, the inhibition at 3 µM ([5]; 72 h) was 97.8 ± 1.6% and the inhibition at 30 µM ([5]; 72 h) was 99.5 ± 0.3%.

Reference: US6844353B2, “Fungicidal properties of sampangine and its analogs to agriculturally important fungal plant pathogens” (The United States of America as represented by the …, priority 2003, dated 2005)
